Laboratory results taken from PubChem BioAssay AID248 (DTP/NCI, 2004).
Toxic doses and inconclusive results are not listed. Rule as the data show it: active = T/C of 150% or more; inactive = T/C below 125%.

Tested on: L1210 leukemia ip in BDF1 mice, survival T/C
Test: NCI In Vivo Anticancer Drug Screen. Data for tumor model L1210 Leukemia (intraperitoneal) in B6D2F1 (BDF1) mice
Settings: endpoint: mean survival time, higher = longer survival
How it was run: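 Transplanted-tumor mice were given test agent; controls received vehicle only. Survival readings from the two groups were divided (treated over control).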

[1] = dose: 100.0 mg/kg/injection, schedule: Q01DX009 (ip), vehicle: Klucel (hydroxypropylcellulose) (HPC)
[2] = dose: 200.0 mg/kg/injection, schedule: Q01DX009 (ip), vehicle: Klucel (hydroxypropylcellulose) (HPC)
[3] = dose: 100.0 mg/kg/injection, schedule: Q04DX002 (ip), vehicle: saline with Tween-80
[4] = dose: 200.0 mg/kg/injection, schedule: Q04DX002 (ip), vehicle: saline with Tween-80
[5] = dose: 100.0 mg/kg/injection, schedule: Q04DX003 (ip), vehicle: saline with Tween-80
[6] = dose: 200.0 mg/kg/injection, schedule: Q04DX003 (ip), vehicle: saline with Tween-80
[7] = dose: 400.0 mg/kg/injection, schedule: Q04DX003 (ip), vehicle: saline with Tween-80
[8] = dose: 100.0 mg/kg/injection, schedule: Q04DX003 (ip), vehicle: Klucel (hydroxypropylcellulose) (HPC)
[9] = dose: 200.0 mg/kg/injection, schedule: Q04DX003 (ip), vehicle: Klucel (hydroxypropylcellulose) (HPC)
[10] = dose: 400.0 mg/kg/injection, schedule: Q04DX003 (ip), vehicle: Klucel (hydroxypropylcellulose) (HPC)

Measured: T/C

O=[N+]([O-])c1cccc2nonc12
inactive: dose: 3.12 mg/kg/injection, schedule: Q04DX002 (ip), vehicle: Klucel (hydroxypropylcellulose) (HPC) 93 % of control | dose: 6.25 mg/kg/injection, schedule: Q04DX002 (ip), vehicle: Klucel (hydroxypropylcellulose) (HPC) 109 % of control | dose: 12.5 mg/kg/injection, schedule: Q04DX002 (ip), vehicle: Klucel (hydroxypropylcellulose) (HPC) 102 % of control

[NH-]CC(=O)O.[NH-]CC(=O)O.[Pt+2]
inactive: dose: 14.0 mg/kg/injection, schedule: Q01DX009 (ip), vehicle: other 89 % of control | dose: 27.9 mg/kg/injection, schedule: Q01DX001 (ip), vehicle: other 93 % of control | dose: 28.0 mg/kg/injection, schedule: Q01DX009 (ip), vehicle: other 100 % of control | dose: 55.8 mg/kg/injection, schedule: Q01DX001 (ip), vehicle: other 89 % of control | dose: 56.0 mg/kg/injection, schedule: Q01DX009 (ip), vehicle: other 96 % of control | dose: 112.0 mg/kg/injection, schedule: Q01DX001 (ip), vehicle: other 97 % of control | dose: 112.0 mg/kg/injection, schedule: Q01DX009 (ip), vehicle: other 113 % of control | dose: 223.0 mg/kg/injection, schedule: Q01DX001 (ip), vehicle: other 109 % of control

CCN(CC)CCNc1c(C)cc(CO)c(Cl)c1C
inactive: dose: 31.25 mg/kg/injection, schedule: Q01DX009 (ip), vehicle: saline 97 % of control | dose: 62.5 mg/kg/injection, schedule: Q01DX009 (ip), vehicle: saline 99 % of control | dose: 125.0 mg/kg/injection, schedule: Q01DX009 (ip), vehicle: saline 97 % of control | dose: 250.0 mg/kg/injection, schedule: Q01DX009 (ip), vehicle: saline 103 % of control

COc1ccc(C(=O)N/N=C/c2ccc(C)cc2)cc1
inactive: [1] 102 % of control | [2] 102 % of control | dose: 400.0 mg/kg/injection, schedule: Q01DX009 (ip), vehicle: Klucel (hydroxypropylcellulose) (HPC) 105 % of control

O=C(Nc1ccccc1)c1ccc(C(F)(F)F)cc1O
inactive: [3] 105 % of control | [4] 103 % of control

O=C1C(c2ccccc2)=C2C(=C1c1ccccc1)c1cccc3cccc2c13
inactive: dose: 50.0 mg/kg/injection, schedule: Q01DX001 (ip), vehicle: saline 97 % of control | dose: 100.0 mg/kg/injection, schedule: Q01DX001 (ip), vehicle: saline 97 % of control | dose: 100.0 mg/kg/injection, schedule: Q01DX009 (ip), vehicle: saline with Tween-80 92 % of control | dose: 200.0 mg/kg/injection, schedule: Q01DX001 (ip), vehicle: saline 100 % of control | dose: 200.0 mg/kg/injection, schedule: Q01DX009 (ip), vehicle: saline with Tween-80 103 % of control | dose: 400.0 mg/kg/injection, schedule: Q01DX001 (ip), vehicle: saline 120 % of control | dose: 400.0 mg/kg/injection, schedule: Q01DX009 (ip), vehicle: saline with Tween-80 97 % of control

CSCc1cnc(N)nc1-c1ccccc1
inactive: [5] 105 % of control | [6] 97 % of control | [7] 105 % of control

N#CC(C#N)=NNc1cccc(Cl)c1Cl
inactive: dose: 5.0 mg/kg/injection, schedule: Q01DX009 (ip), vehicle: saline with Tween-80 90 % of control | dose: 10.0 mg/kg/injection, schedule: Q01DX009 (ip), vehicle: saline with Tween-80 88 % of control

O=C1CCC(N2C(=O)C3C(C2=O)C2(Cl)C(Cl)=C(Cl)C3(Cl)C2(Cl)Cl)C(=O)N1 (stereo unspecified)
inactive: dose: 100.0 mg/kg/injection, schedule: Q04DX003 (ip), vehicle: saline 94 % of control | dose: 200.0 mg/kg/injection, schedule: Q04DX003 (ip), vehicle: saline 97 % of control

CC(=O)C(=O)C1=C2CCCN2CCc2cc3c(cc21)OCO3
inactive: dose: 100.0 mg/kg/injection, schedule: Q04DX002 (ip), vehicle: Klucel (hydroxypropylcellulose) (HPC) 111 % of control | dose: 200.0 mg/kg/injection, schedule: Q04DX002 (ip), vehicle: Klucel (hydroxypropylcellulose) (HPC) 114 % of control | dose: 400.0 mg/kg/injection, schedule: Q04DX002 (ip), vehicle: Klucel (hydroxypropylcellulose) (HPC) 118 % of control

CC1CCC(O)(C(C)(C(=O)O)c2ccccc2)CC1 (stereo unspecified)
inactive: dose: 55.0 mg/kg/injection, schedule: Q01DX Z (ip), vehicle: methylcellulose (MC) 96 % of control | dose: 83.0 mg/kg/injection, schedule: Q01DX Z (ip), vehicle: methylcellulose (MC) 105 % of control | dose: 125.0 mg/kg/injection, schedule: Q01DX Z (ip), vehicle: methylcellulose (MC) 93 % of control

COc1ccc(CCNC(=O)NC(C)(C)C)cc1OC
inactive: [3] 97 % of control | [4] 94 % of control | dose: 400.0 mg/kg/injection, schedule: Q04DX002 (ip), vehicle: saline with Tween-80 97 % of control

O=C1/C(=C\c2ccccc2Cl)N2CCC1CC2
inactive: dose: 100.0 mg/kg/injection, schedule: Q01DX001 (ip), vehicle: saline with Tween-80 94 % of control | dose: 200.0 mg/kg/injection, schedule: Q01DX001 (ip), vehicle: saline with Tween-80 109 % of control | dose: 400.0 mg/kg/injection, schedule: Q01DX001 (ip), vehicle: saline with Tween-80 93 % of control

CCOP(=O)(/C(=C\c1ccccc1)C(=O)c1ccccc1)c1ccccc1 (stereo unspecified)
inactive: [1] 96 % of control | [8] 95 % of control | [2] 95 % of control | [9] 98 % of control | dose: 300.0 mg/kg/injection, schedule: Q01DX009 (ip), vehicle: Klucel (hydroxypropylcellulose) (HPC) 90 % of control | [10] 98 % of control

c1coc(CCc2nc3ccccc3[nH]2)c1
inactive: dose: 50.0 mg/kg/injection, schedule: Q01DX009 (ip), vehicle: Klucel (hydroxypropylcellulose) (HPC) 121 % of control | [1] 116 % of control | [8] 96 % of control | [2] 100 % of control | [9] 100 % of control

CC1=CCCCC1Br (stereo unspecified)
inactive: [5] 96 % of control | [6] 101 % of control | [7] 98 % of control

O=C1CCCCC1O (stereo unspecified)
inactive: dose: 100.0 mg/kg/injection, schedule: Q01DX001 (ip), vehicle: other 116 % of control | dose: 200.0 mg/kg/injection, schedule: Q01DX001 (ip), vehicle: other 103 % of control | dose: 400.0 mg/kg/injection, schedule: Q01DX001 (ip), vehicle: other 95 % of control

COC(OC)c1cc(S)[nH]c(=O)c1F
inactive: [8] 98 % of control | [9] 97 % of control | [10] 103 % of control
